Assay results from ChEMBL document CHEMBL1121572, “Synthetic and preliminary hemodynamic and whole animal toxicity studies on (R,S)-, (R)-, and (S)-2-methyl-3-(2,4,5-trihydroxyphenyl)alanine” (J Med Chem, 1980).

Test: Compound was tested for toxicity (lethal dose) in male white swiss mice
Format: organism-based
Settings: mouse, in vivo

Row | SMILES | LD50
1 | CC(N)(Cc1cc(O)c(O)cc1O)C(=O)O (racemic) | 289 mg/kg
2 | CC(N)Cc1cc(O)c(O)cc1O (racemic) | 320 mg/kg
3 | CC(N)Cc1ccc(O)c(O)c1 (racemic) | 576 mg/kg
4 | CC(N)(Cc1ccc(O)c(O)c1)C(=O)O (racemic) [METHYLDOPA (RACEMIC)] | 1320 mg/kg
5 | C[C@](N)(Cc1ccc(O)c(O)c1)C(=O)O [METHYLDOPA] | 1890 mg/kg
